Data from ChEMBL document CHEMBL5321219, “Selective degradation of cellular BRD3 and BRD4-L promoted by PROTAC molecules in six cancer cell lines” (Eur J Med Chem, 2023).
Activity calls are given as the source filed them. The rule behind the calls is not given here.

Key:
[1] = molecular target: T1, Protein cereblon/Bromodomain-containing protein 4 (Homo sapiens) (UniProt O60885+Q96SW2); assay: PROTAC activity at CRBN/BRD4-L in human A549 cells assessed as induction of protein degradation measured after 24 hrs by Western blot analysis; assay type: cell-based; details: dose 3-1000 nM
[2] = molecular target: T2, Protein cereblon/Bromodomain-containing protein 3 (Homo sapiens) (UniProt Q15059+Q96SW2); assay: PROTAC activity at CRBN/BRD3 in human HGC-27 cells assessed as induction of protein degradation measured after 24 hrs by Western blot analysis; assay type: cell-based; details: dose 0.1-30 nM
MM1.S [3] = assay: Induction of cell cycle arrest in human MM1.S cells assessed as accumulation of cells at S phase at 3 nM incubated for 24 hrs by flow cytometry analysis (reference value: 22.37%); assay type: functional
[4] = molecular target: T1, Protein cereblon/Bromodomain-containing protein 4 (Homo sapiens); assay: PROTAC activity at CRBN/BRD4-S in human HeLa cells assessed as induction of protein degradation at 1 to 300 nM measured after 24 hrs by Western blot analysis; assay type: cell-based; details: dose 1-300 nM
[5] = molecular target: T1, Protein cereblon/Bromodomain-containing protein 4 (Homo sapiens); assay: PROTAC activity at CRBN/BRD4-L in human HGC-27 cells assessed as induction of protein degradation measured after 24 hrs by Western blot analysis; assay type: cell-based; details: dose 0.1-30 nM
MM1.S [6] = assay: Induction of cell cycle arrest in human MM1.S cells assessed as accumulation of cells at G2 phase at 1 nM incubated for 24 hrs by flow cytometry analysis (reference value: 14.68%); assay type: functional
[7] = molecular target: T2, Protein cereblon/Bromodomain-containing protein 3 (Homo sapiens); assay: PROTAC activity at CRBN/BRD3 in human MM1.S cells assessed as induction of protein degradation at 30 nM measured after 3 to 6 hrs by Western blot analysis; assay type: cell-based; details: time 3-6 hrs
[8] = molecular target: T2, Protein cereblon/Bromodomain-containing protein 3 (Homo sapiens); assay: PROTAC activity at CRBN/BRD3 in human MM1.S cells assessed as induction of protein degradation at 30 nM pretreated with 0.2 to 10 uM MG132 for 2 hrs followed by compound addition and measured after 4 hrs by Western blot analysis; assay type: cell-based
[9] = molecular target: T1, Protein cereblon/Bromodomain-containing protein 4 (Homo sapiens); assay: PROTAC activity at CRBN/BRD4-L in human MM1.S cells assessed as induction of protein degradation measured after 24 hrs by Western blot analysis; assay type: cell-based
MM1.S [10] = assay: Induction of cell cycle arrest in human MM1.S cells assessed as accumulation of cells at G2 phase at 10 nM incubated for 24 hrs by flow cytometry analysis (reference value: 14.68%); assay type: functional
[11] = molecular target: Protein cereblon/Bromodomain-containing protein 2 (Homo sapiens) (UniProt P25440+Q96SW2); assay: PROTAC activity at CRBN/BRD2 in human HeLa cells assessed as induction of protein degradation at 1 to 300 nM measured after 24 hrs by Western blot analysis; assay type: cell-based; details: dose 1-300 nM
[12] = molecular target: T1, Protein cereblon/Bromodomain-containing protein 4 (Homo sapiens); assay: PROTAC activity at CRBN/BRD4-S in human HepG2 cells assessed as induction of protein degradation at 10 to 3000 nM measured after 24 hrs by Western blot analysis; assay type: cell-based; details: dose 10-3000 nM
[13] = molecular target: T2, Protein cereblon/Bromodomain-containing protein 3 (Homo sapiens); assay: PROTAC activity at CRBN/BRD3 in human MM1.S cells assessed as induction of protein degradation measured after 24 hrs by Western blot analysis; assay type: cell-based
MM1.S [14] = assay: Induction of cell cycle arrest in human MM1.S cells assessed as accumulation of cells at G2 phase at 100 nM incubated for 24 hrs by flow cytometry analysis (reference value: 14.68%); assay type: functional

T2 sequence (Q15059 2-726 limits assumed): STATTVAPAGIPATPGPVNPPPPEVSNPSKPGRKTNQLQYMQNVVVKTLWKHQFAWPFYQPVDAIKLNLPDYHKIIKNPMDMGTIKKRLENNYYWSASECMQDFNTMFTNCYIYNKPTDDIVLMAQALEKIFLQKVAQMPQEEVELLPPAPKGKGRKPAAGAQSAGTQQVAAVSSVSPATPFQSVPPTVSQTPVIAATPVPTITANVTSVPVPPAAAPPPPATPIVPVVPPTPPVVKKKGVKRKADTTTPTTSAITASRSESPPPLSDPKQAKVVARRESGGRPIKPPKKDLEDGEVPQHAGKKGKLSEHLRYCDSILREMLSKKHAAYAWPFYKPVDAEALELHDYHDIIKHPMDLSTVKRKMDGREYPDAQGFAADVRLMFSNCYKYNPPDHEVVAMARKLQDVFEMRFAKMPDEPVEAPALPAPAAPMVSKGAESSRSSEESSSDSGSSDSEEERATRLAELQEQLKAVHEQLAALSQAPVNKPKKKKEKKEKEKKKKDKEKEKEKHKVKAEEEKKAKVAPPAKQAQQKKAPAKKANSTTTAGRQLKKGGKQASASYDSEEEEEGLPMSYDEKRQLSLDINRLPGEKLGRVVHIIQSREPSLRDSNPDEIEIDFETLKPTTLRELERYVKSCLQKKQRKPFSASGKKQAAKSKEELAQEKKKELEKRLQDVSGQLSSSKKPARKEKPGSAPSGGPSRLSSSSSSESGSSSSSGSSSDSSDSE
T2 sequence (Q96SW2 whole entry partner): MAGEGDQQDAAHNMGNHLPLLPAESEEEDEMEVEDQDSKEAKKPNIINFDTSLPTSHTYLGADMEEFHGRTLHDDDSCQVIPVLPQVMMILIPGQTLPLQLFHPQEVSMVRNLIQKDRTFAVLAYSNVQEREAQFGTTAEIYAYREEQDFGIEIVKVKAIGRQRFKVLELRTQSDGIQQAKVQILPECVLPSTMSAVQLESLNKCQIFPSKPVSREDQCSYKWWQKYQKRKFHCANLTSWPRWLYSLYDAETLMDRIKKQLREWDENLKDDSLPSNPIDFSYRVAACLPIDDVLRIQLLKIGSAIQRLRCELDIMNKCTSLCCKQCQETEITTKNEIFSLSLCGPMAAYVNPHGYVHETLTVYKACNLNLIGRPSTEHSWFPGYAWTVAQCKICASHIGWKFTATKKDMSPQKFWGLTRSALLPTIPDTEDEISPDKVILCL
T1 sequence (Q96SW2 whole entry, looked up, other chains not shown): as the sequence (Q96SW2 whole entry partner) above
Sequence of Protein cereblon/Bromodomain-containing protein 2 (Homo sapiens) (P25440 whole entry, looked up): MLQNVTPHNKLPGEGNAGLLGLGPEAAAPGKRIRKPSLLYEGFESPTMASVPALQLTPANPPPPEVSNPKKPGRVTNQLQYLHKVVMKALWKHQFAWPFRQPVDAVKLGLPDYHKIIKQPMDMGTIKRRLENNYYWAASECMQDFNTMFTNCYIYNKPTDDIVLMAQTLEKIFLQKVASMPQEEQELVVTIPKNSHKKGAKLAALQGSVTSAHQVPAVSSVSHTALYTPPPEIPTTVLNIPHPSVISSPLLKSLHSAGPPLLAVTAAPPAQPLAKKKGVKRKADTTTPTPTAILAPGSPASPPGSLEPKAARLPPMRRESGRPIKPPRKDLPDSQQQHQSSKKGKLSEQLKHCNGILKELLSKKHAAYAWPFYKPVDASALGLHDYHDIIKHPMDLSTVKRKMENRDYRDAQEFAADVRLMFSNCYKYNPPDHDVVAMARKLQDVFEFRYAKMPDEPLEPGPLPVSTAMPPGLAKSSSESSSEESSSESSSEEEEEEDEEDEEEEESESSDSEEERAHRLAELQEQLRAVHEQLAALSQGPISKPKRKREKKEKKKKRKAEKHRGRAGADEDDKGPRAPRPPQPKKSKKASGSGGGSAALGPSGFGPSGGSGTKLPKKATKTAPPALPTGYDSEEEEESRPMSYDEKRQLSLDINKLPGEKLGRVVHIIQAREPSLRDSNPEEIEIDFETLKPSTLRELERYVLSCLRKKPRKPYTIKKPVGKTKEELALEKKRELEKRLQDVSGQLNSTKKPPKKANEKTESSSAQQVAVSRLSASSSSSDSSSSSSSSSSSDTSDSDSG
Sequence of Protein cereblon/Bromodomain-containing protein 2 (Homo sapiens) (Q96SW2 whole entry, looked up): as the sequence (Q96SW2 whole entry partner) above

In the case of `Cc1nnc2n1-c1ccc(-c3ccc(CNCCCCc4cccc5c4CN(C4CCC(=O)NC4=O)C5=O)cc3)cc1C(Nc1ccc(Cl)cc1)CC2` (centres undefined), the Activity [1] is reported as “Dose-Dependent Effect”, the Activity [2] is reported as “Dose-Dependent Effect” and the Activity (MM1.S [3]) is reported as 17.72%. The Activity [4] was “inactive”, the Activity [5] was “Dose-Dependent Effect” and the Activity (MM1.S [6]) was 15.24%. The Activity [7] was “Active”, the Activity [8] was “inactive” and the Activity [9] was “Dose-Dependent Effect”. For the same molecule, the Activity (MM1.S [10]) was 17.82%, the Activity [11] was “inactive” and the Activity [12] was “inactive”. For the same molecule, the Activity [13] was “Dose-Dependent Effect” and the Activity (MM1.S [14]) was 16.63%.
